Laboratory results taken from US12714685B2, “Drug combination and its use in the treatment of cancer” (priority 2020, dated 2026).
Like-named read-outs stand apart in the source and are kept apart here.

Assays:
[1] = test system: LN-18 cells; experiment: In vitro cytotoxicity (LDH release assay) on LN-18 glioma cells; conditions: for IC50: Homo sapiens, LN-18, 24 h
Source text: (§1) Two colorimetric assays were established to monitor cytotoxicity in response to the tested drugs, one measuring the release of lactate dehydrogenase (LDH) from cells, a well-established marker for cell toxicity, and the other measuring the activity of mitochondrial […], an indicator of cell viability, by the reduction of the soluble tetrazolium dye MTT. […] Cells were also monitored by direct microscopic observation. Controls included cells treated with medium without drug and cells treated with Camptothesin, a known cytotoxic agent, as positive control. Incubation with drug concentrations was carried out for 24 hours at 37° C.
(§2) DAB was tested in vitro under ideal conditions in absence of any competing physiological amino acid allowing low concentrations of 0.5, 1, 2, 3, 4, 5, 6, 8, 12, and 16 mM.
(§3) Prazosin was tested at concentrations of 0.1, 0.5, 1, 2, 5, 10, 20, 30 and 50 μM.
DAB was used at concentrations of 1, 2 and 4 mM. Each of these concentrations was tested alone or in combination with 1, 2 or 4 μM of Prazosin, i.e. the combinations tested were the following: • 1 mM DAB+1 μM Prazosin • 1 mM DAB+2 μM Prazosin • 1 mM DAB+4 μM Prazosin • 2 mM DAB+1 μM Prazosin • 2 mM DAB+2 μM Prazosin • 2 mM DAB+4 μM Prazosin • 4 mM DAB+1 μM Prazosin • 4 mM DAB+2 μM Prazosin • 4 mM DAB+4 μM Prazosin

[2] = test system: HMC3 cells; experiment: In vitro cytotoxicity (LDH release assay) on non-malignant HMC3 cells; type: cell-based, human; conditions: 24 hours at 37° C.
Source text: as §1, §2, §3

[3] = test system: human glioma cells; conditions: cited from earlier work
[4] = two clinical studies, small patient series; cited from earlier work
[5] = Solubility in aqueous media
[6] = test system: glioblastoma; conditions: mouse xenografts; cited from earlier work

Row | SMILES | cytotoxic effect against glioma cell line LN-18 (in words) ([1]; 24 hours at 37° C.) | IC50 ([1]; read-out: IC50, cytotoxic effect against glioma cell line LN-18) | IC50 against non-malignant HMC3 cells [2] | toxicity towards non-malignant HMC3 cells (in words) [2] | antitumoral activity in vitro [3] | clinical benefit [4] | solubility in aqueous media [5] | cytotoxic effect against glioma cell line LN-18 (in words) [1] | IC50 ([1]; read-out: IC50, cytotoxic effect against glioma LN-18 line) | glioblastoma growth [6]
1 | NCC[C@H](N)C(=O)O [DAB, L-2,4 diaminobutyric acid] | strong cytotoxic effect | 3800 µM | no IC50 could be determined | weak toxicity | antitumoral activity | failed to demonstrate significant clinical benefit | soluble | – | – | –
2 | COc1cc2nc(N3CCN(C(=O)c4ccco4)CC3)nc(N)c2cc1OC [Prazosin] | – | – | no IC50 could be determined | little cytotoxicity | – | – | – | strong cytotoxic effect | 3.4 µM | inhibit glioblastoma growth
